Reference: ChEMBL document CHEMBL1909046, “DrugMatrix in vitro pharmacology data”
*1 amine or outer side, *2 acyl side, *3 side chain or, on linkers, in order; H or OH if unused. Where a SMILES comes first, the peptide text is derived from it. Bridges are numbered along the chain shown (N, C = ends). Roman numbers before positions name the chains, in order. [ ]: non-standard residue; d: D form. Actinocin(1to9) = Cc1c2oc3c(C)ccc(C(=O)[*:2])c3nc-2c(C(=O)[*:1])c(N)c1=O; NMeV = CN[C@H](C(=O)O)C(C)C; Sar = CNCC(=O)O

Experiments:
[1] = molecular target: Kappa-type opioid receptor (Homo sapiens, UniProt P41145); test: DRUGMATRIX: Opiate kappa (OP2, KOP) radioligand binding (ligand: [3H] Diprenorphine); type: cell membranes, HEK293, Membrane; conditions: hek293; Not Active = under 50% inhibition at 10 µM
Kappa-type opioid receptor, sequence (P41145 whole entry): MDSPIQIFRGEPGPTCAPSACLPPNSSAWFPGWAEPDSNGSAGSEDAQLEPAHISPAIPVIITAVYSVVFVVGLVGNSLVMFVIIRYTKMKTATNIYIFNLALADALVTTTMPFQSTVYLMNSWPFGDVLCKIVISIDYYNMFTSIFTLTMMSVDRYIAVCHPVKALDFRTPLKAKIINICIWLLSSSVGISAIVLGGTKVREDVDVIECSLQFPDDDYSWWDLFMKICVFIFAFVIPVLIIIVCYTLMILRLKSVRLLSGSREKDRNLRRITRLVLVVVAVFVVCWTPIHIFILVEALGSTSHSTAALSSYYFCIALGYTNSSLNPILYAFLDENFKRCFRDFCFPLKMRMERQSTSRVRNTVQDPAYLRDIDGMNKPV

[2] = DRUGMATRIX: Glutamate, Kainate radioligand binding (ligand: [3H] Kainic acid); type: cell membranes, Rattus norvegicus, Wistar, Brain, Membrane; conditions: Not Active = under 50% inhibition at 10 µM
Vasopressin V1a receptor = Vasopressin V1a receptor (Homo sapiens, UniProt P37288); type: cell membranes, Membrane; conditions: hek293; further: in other assays of this panel Not Active means under 50% inhibition at 10 µM
Vasopressin V1a receptor, sequence (P37288 whole entry): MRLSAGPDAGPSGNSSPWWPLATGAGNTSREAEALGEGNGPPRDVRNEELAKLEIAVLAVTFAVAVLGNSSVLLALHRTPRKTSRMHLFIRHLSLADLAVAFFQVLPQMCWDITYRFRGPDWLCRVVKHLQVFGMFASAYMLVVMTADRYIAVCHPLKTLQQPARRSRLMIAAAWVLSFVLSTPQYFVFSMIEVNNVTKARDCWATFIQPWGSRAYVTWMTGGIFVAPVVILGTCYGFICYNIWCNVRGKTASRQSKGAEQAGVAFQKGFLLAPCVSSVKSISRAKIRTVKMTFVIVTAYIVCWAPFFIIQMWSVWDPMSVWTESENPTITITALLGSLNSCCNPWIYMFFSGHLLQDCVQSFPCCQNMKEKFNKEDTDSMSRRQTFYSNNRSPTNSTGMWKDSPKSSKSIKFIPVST

[3] = molecular target: 5-hydroxytryptamine receptor 4 (Cavia porcellus, UniProt O70528); type: cell membranes, Dunkin-Hartley, Striatum, Membrane; further: in other assays of this panel Not Active means under 50% inhibition at 10 µM
5-hydroxytryptamine receptor 4, sequence (O70528 whole entry): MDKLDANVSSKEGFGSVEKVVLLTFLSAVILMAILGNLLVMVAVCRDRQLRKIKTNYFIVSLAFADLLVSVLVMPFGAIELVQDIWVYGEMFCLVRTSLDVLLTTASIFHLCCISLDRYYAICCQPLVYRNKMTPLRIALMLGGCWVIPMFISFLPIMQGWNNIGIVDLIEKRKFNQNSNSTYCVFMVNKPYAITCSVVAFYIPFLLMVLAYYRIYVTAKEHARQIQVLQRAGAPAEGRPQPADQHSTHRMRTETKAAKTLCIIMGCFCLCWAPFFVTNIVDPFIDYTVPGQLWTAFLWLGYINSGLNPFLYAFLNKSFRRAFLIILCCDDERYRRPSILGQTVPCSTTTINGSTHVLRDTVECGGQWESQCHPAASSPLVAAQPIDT

[4] = molecular target: 5-hydroxytryptamine receptor 2B (Homo sapiens, UniProt P41595); type: cell membranes, CHO-K1, Membrane; conditions: cho-k1; further: in other assays of this panel Not Active means under 50% inhibition at 10 µM
5-hydroxytryptamine receptor 2B, sequence (P41595 whole entry): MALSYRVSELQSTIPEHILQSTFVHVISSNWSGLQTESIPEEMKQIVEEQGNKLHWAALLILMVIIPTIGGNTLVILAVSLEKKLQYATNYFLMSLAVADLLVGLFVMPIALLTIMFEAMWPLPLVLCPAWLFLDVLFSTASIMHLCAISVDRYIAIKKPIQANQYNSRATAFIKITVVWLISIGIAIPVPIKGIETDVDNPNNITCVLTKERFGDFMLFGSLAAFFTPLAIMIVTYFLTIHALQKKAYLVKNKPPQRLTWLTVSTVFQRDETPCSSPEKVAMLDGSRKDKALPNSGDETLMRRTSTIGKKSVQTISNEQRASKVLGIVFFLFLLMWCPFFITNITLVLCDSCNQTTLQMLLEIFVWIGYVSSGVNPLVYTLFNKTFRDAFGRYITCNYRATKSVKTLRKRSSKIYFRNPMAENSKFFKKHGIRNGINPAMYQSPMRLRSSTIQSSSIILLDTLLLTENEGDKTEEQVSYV

Interstitial collagenase = molecular target: T1, Interstitial collagenase (Homo sapiens, UniProt P03956); test: biochemical; type: tissue-based, Rheumatoid synovial fibroblasts;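 further: MMP-1 enzyme inhibition assay using a peptide substrate; in other assays of this panel Not Active means under 50% inhibition at 10 µM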
T1 sequence (P03956 whole entry): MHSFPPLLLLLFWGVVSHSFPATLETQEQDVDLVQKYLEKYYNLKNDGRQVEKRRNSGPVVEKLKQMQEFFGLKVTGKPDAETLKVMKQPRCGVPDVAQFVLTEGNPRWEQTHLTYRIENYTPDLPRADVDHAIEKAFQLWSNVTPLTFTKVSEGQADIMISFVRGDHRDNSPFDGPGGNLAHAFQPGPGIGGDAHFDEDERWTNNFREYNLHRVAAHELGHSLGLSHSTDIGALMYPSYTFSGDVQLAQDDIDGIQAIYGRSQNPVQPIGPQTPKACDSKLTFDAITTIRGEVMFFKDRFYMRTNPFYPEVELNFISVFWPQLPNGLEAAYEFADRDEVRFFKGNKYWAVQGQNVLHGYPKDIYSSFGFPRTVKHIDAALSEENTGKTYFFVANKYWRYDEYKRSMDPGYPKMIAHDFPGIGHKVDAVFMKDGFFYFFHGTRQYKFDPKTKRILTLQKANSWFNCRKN

[5] = molecular target: T2, 3-hydroxy-3-methylglutaryl-coenzyme A reductase (Homo sapiens, UniProt P04035); set-up: species or system Escherichia coli
T2 sequence (P04035 whole entry): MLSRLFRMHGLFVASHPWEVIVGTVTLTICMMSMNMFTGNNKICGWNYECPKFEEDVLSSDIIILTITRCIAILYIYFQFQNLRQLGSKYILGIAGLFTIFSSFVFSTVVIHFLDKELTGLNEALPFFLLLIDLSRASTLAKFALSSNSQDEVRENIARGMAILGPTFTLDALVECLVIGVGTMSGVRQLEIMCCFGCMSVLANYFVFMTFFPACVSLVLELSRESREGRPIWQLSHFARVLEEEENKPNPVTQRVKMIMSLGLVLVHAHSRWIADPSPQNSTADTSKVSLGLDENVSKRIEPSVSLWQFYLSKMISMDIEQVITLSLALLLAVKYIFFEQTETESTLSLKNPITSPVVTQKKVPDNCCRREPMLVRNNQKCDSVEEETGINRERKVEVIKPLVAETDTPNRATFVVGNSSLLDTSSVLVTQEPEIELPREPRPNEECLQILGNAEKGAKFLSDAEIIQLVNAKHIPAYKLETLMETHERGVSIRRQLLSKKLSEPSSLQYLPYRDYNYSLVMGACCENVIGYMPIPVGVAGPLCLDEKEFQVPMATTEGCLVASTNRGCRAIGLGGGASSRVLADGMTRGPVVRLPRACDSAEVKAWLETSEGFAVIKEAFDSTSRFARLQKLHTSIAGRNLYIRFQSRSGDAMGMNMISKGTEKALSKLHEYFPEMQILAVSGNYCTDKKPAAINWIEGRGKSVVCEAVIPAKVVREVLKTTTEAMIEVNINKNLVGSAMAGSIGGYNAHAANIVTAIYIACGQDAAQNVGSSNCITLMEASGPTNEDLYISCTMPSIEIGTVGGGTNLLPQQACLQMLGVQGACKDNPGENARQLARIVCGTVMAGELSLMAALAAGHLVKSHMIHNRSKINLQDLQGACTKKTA

CCOC(=O)C1=C(COCCN)NC(C)=C(C(=O)OC)C1c1ccccc1Cl (centres undefined) [AMLODIPINE]
Not Active: IC50 [1] | IC50 [2] | Ki [2] | IC50 (Vasopressin V1a receptor) | IC50 [3] | IC50 [4] | IC50 (Interstitial collagenase) | IC50 [5]

Nc1ncn([C@@H]2O[C@H](CO)[C@@H](O)[C@H]2O)c(=O)n1 [AZACITIDINE]
Not Active: IC50 [1] | IC50 [2] | Ki [2] | IC50 (Vasopressin V1a receptor) | IC50 [3] | IC50 [4] | IC50 (Interstitial collagenase) | IC50 [5]

CN(C)C(=O)Oc1cc(OC(=O)N(C)C)cc(C(O)CNC(C)(C)C)c1 (centres undefined) [BAMBUTEROL]
Not Active: IC50 [1] | IC50 [2] | Ki [2] | IC50 (Vasopressin V1a receptor) | IC50 [3] | IC50 [4] | IC50 (Interstitial collagenase) | IC50 [5]

c1ccc2c(c1)c1cccc3ccc4cccc2c4c31 [BENZO[E]PYRENE]
Not Active: IC50 [1] | IC50 [2] | Ki [2] | IC50 (Vasopressin V1a receptor) | IC50 [3] | IC50 [4] | IC50 (Interstitial collagenase) | IC50 [5]

CNCCc1ccccn1 [BETAHISTINE]
Not Active: IC50 [1] | IC50 [2] | Ki [2] | IC50 (Vasopressin V1a receptor) | IC50 [3] | IC50 [4] | IC50 (Interstitial collagenase) | IC50 [5]

CC(C)C(Br)C(=O)NC(N)=O (centres undefined) [BROMISOVALUM]
Not Active: IC50 [1] | IC50 [2] | Ki [2] | IC50 (Vasopressin V1a receptor) | IC50 [3] | IC50 [4] | IC50 (Interstitial collagenase) | IC50 [5]

CCCC1O[C@@H]2C[C@H]3[C@@H]4CCC5=CC(=O)C=C[C@]5(C)[C@H]4[C@@H](O)C[C@]3(C)[C@]2(C(=O)CO)O1 (some centres undefined) [BUDESONIDE]
Not Active: IC50 [1] | IC50 [2] | Ki [2] | IC50 (Vasopressin V1a receptor) | IC50 [3] | IC50 [4] | IC50 (Interstitial collagenase) | IC50 [5]

CC(NC(C)(C)C)C(=O)c1cccc(Cl)c1 (centres undefined) [BUPROPION]
Not Active: IC50 [1] | IC50 [2] | Ki [2] | IC50 (Vasopressin V1a receptor) | IC50 [3] | IC50 [4] | IC50 (Interstitial collagenase) | IC50 [5]

CN(Cc1ccc(C(C)(C)C)cc1)Cc1cccc2ccccc12 [BUTENAFINE]
Not Active: IC50 [1] | IC50 [2] | Ki [2] | IC50 (Vasopressin V1a receptor) | IC50 [3] | IC50 [4] | IC50 (Interstitial collagenase) | IC50 [5]

C[C@H](CS)C(=O)N1CCC[C@H]1C(=O)O [CAPTOPRIL]
Not Active: IC50 [1] | IC50 [2] | Ki [2] | IC50 (Vasopressin V1a receptor) | IC50 [3] | IC50 [4] | IC50 (Interstitial collagenase) | IC50 [5]

Cc1ccc(-c2cc(C(F)(F)F)nn2-c2ccc(S(N)(=O)=O)cc2)cc1 [CELECOXIB]
Not Active: IC50 [1] | IC50 [2] | Ki [2] | IC50 (Vasopressin V1a receptor) | IC50 [3] | IC50 [4] | IC50 (Interstitial collagenase) | IC50 [5]

C[C@H](CCC(=O)O)[C@H]1CC[C@H]2[C@@H]3[C@H](O)C[C@@H]4C[C@H](O)CC[C@]4(C)[C@H]3C[C@H](O)[C@]12C [CHOLIC ACID]
Not Active: IC50 [1] | IC50 [2] | Ki [2] | IC50 (Vasopressin V1a receptor) | IC50 [3] | IC50 [4] | IC50 (Interstitial collagenase) | IC50 [5]

Cc1cc(C2CCCCC2)n(O)c(=O)c1 [CICLOPIROX]
Not Active: IC50 [1] | IC50 [2] | Ki [2] | IC50 (Vasopressin V1a receptor) | IC50 [3] | IC50 [4] | IC50 (Interstitial collagenase) | IC50 [5]

CC(C)(Oc1ccc(Cl)cc1)C(=O)O [CLOFIBRIC ACID]
Not Active: IC50 [1] | IC50 [2] | Ki [2] | IC50 (Vasopressin V1a receptor) | IC50 [3] | IC50 [4] | IC50 (Interstitial collagenase) | IC50 [5]

Clc1cccc(Cl)c1NC1=NCCN1 [CLONIDINE]
Not Active: IC50 [1] | IC50 [2] | Ki [2] | IC50 (Vasopressin V1a receptor) | IC50 [3] | IC50 [4] | IC50 (Interstitial collagenase) | IC50 [5]

Cc1cc(C(C#N)c2ccc(Cl)cc2)c(Cl)cc1NC(=O)c1cc(I)cc(I)c1O (centres undefined) [CLOSANTEL]
Not Active: IC50 [1] | IC50 [2] | Ki [2] | IC50 (Vasopressin V1a receptor) | IC50 [3] | IC50 [4] | IC50 (Interstitial collagenase) | IC50 [5]

Cc1onc(-c2ccccc2Cl)c1C(=O)N[C@@H]1C(=O)N2[C@@H]1SC(C)(C)[C@@H]2C(=O)O [CLOXACILLIN]
Not Active: IC50 [1] | IC50 [2] | Ki [2] | IC50 (Vasopressin V1a receptor) | IC50 [3] | IC50 [4] | IC50 (Interstitial collagenase) | IC50 [5]

CC1CC(OC(=O)C(O)c2ccccc2)CC(C)(C)C1 (centres undefined) [CYCLANDELATE]
Not Active: IC50 [1] | IC50 [2] | Ki [2] | IC50 (Vasopressin V1a receptor) | IC50 [3] | IC50 [4] | IC50 (Interstitial collagenase) | IC50 [5]

Cc1c2oc3c(C)ccc(C(=O)N[C@@H]4C(=O)N[C@H](C(C)C)C(=O)N5CCC[C@H]5C(=O)N(C)CC(=O)N(C)[C@@H](C(C)C)C(=O)O[C@@H]4C)c3nc-2c(C(=O)N[C@@H]2C(=O)N[C@H](C(C)C)C(=O)N3CCC[C@H]3C(=O)N(C)CC(=O)N(C)[C@@H](C(C)C)C(=O)O[C@@H]2C)c(N)c1=O [DACTINOMYCIN] (I: T[dV]P[Sar][NMeV] / II: T[dV]P[Sar][NMeV]; ester I:1-I:C, II:1-II:C; linker I:N-II:N via Actinocin(1to9))
Not Active: IC50 [1] | IC50 [2] | Ki [2] | IC50 (Vasopressin V1a receptor) | IC50 [3] | IC50 [4] | IC50 (Interstitial collagenase) | IC50 [5]

Cc1c(O)c(=O)ccn1C [DEFERIPRONE]
Not Active: IC50 [1] | IC50 [2] | Ki [2] | IC50 (Vasopressin V1a receptor) | IC50 [3] | IC50 [4] | IC50 (Interstitial collagenase) | IC50 [5]

CNCCCN1c2ccccc2CCc2ccccc21 [DESIPRAMINE]
Not Active: IC50 [1] | IC50 [2] | Ki [2] | IC50 (Vasopressin V1a receptor) | IC50 [3] | IC50 [4] | IC50 (Interstitial collagenase) | IC50 [5]

O=c1oc2ccccc2c(O)c1Cc1c(O)c2ccccc2oc1=O [DICUMAROL]
Not Active: IC50 [1] | IC50 [2] | Ki [2] | IC50 (Vasopressin V1a receptor) | IC50 [3] | IC50 [4] | IC50 (Interstitial collagenase) | IC50 [5]

C[C@H]1O[C@@H](O[C@H]2[C@@H](O)C[C@H](O[C@H]3[C@@H](O)C[C@H](O[C@H]4CC[C@@]5(C)[C@H](CC[C@@H]6[C@@H]5C[C@@H](O)[C@]5(C)[C@@H](C7=CC(=O)OC7)CC[C@]65O)C4)O[C@@H]3C)O[C@@H]2C)C[C@H](O)[C@@H]1O [DIGOXIN]
Not Active: IC50 [1] | IC50 [2] | Ki [2] | IC50 (Vasopressin V1a receptor) | IC50 [3] | IC50 [4] | IC50 (Interstitial collagenase) | IC50 [5]
